Data on 22 compounds can be found in PMC5706701, “Development of a homogenous high-throughput assay for inositol hexakisphosphate kinase 1 activity” (PLoS ONE, 2017).

Structures are written as SMILES. Structures can show the parent of a compound that is named as a salt.

This test has as its target T1, Human IP6K1 (Homo sapiens, UniProt Q92551).
T1 construct: GST (N, cleaved yes); made in house; host or cells: C43 E. coli, pGEX-6P-2
In words: IP6K1 high-throughput screen of the Sigma LOPAC (ADP-Glo Max, single point).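 Also: final compound concentration 10µM in 5% DMSO.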 It is filed as biochemical. A general note: ADP-Glo turns the ADP formed in a reaction into a luminescent signal.

The mark [1] stands for this setting: LOPAC single-point screen, ADP-Glo Max raw signal per well.
Where [2] appears, read: LOPAC single-point screen, Z-score from raw signal with plate average and StDev.
Setting [3] is: LOPAC single-point screen, Z-score against plate average and StDev.
The mark [4] stands for this setting: LOPAC single-point screen, ADP-Glo Max luminescence raw signal per well.
The mark [5] stands for this setting: LOPAC single-point screen, Z-score relative to plate average and StDev.
Setting [6] is: Sigma LOPAC single-point screen, ADP-Glo Max raw signal per well.
Where [7] appears, read: Sigma LOPAC single-point screen, Z-score from plate average and StDev.

T1 sequence (Q92551 whole entry): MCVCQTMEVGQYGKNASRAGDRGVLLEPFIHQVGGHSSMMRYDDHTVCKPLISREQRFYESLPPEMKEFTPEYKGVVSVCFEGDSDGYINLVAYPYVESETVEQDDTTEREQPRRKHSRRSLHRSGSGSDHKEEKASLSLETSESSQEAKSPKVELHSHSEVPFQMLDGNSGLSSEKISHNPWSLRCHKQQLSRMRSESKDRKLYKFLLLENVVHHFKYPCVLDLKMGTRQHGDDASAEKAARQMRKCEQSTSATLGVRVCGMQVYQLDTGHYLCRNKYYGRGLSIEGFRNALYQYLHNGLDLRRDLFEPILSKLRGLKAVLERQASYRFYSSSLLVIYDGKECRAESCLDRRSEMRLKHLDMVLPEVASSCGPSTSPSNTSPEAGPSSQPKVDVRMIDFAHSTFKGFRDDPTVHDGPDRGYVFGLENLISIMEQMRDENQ

On to `Clc1cnc(Oc2ccc(Oc3ncc(Cl)cc3Cl)cc2)c(Cl)c1` [TCPOBOP], for which, under setting [1], the “Raw Signal” value came out at 54822. Moreover, under setting [2], the Z-score is listed as -0.2335.

Regarding `C[C@]12CCC(=O)C=C1CC[C@@H]1[C@@H]2CC[C@@]2(C)[C@H]1CC[C@]2(O)C(=O)CO` [Cortexolone], the “Raw Signal” value under setting [1] stood at 55575. Moreover, the Z-score under setting [3] is -0.08719.

As for `S=C(NC1CCCCC1)N1CCC(c2cnc[nH]2)CC1` [Thioperamide maleate], the “Raw Signal” value under setting [1] is recorded as 54981. The Z-score under setting [2] was -0.2026.

As for `Nc1nc2c(ncn2COCCO)c(=O)[nH]1` [Acyclovir], the “Raw Signal” value under setting [4] was 53270. Moreover, the Z-score under setting [5] is given as -0.8178.

In the case of `Cc1ccccc1CNc1ncnc2c1ncn2[C@@H]1O[C@H](CO)[C@@H](O)[C@H]1O` [Metrifudil], the “Raw Signal” value under setting [1] was 54359. Further, the Z-score under setting [3] is -0.005798.

As for `NC[C@@H]1O[C@H](O[C@H]2[C@@H](O)[C@H](O[C@@H]3[C@@H](O)[C@H](N)C[C@H](N)[C@H]3O[C@H]3O[C@H](CO)[C@@H](O)[C@H](O)[C@H]3N)O[C@@H]2CO)[C@H](N)[C@@H](O)[C@@H]1O` [Paromomycin sulfate], the “Raw Signal” value under setting [1] is 55765. Besides, the Z-score under setting [3] is reported as -0.05028.

With `NCCc1c[nH]cn1` [Histamine dihydrochloride], under setting [4], the “Raw Signal” value was 51759. The Z-score under setting [5] was -0.6921.

Consider `N=C(N)N/N=C/c1c(Cl)cccc1Cl` [Guanabenz acetate], for which the “Raw Signal” value under setting [1] came to 54722. Moreover, the Z-score under setting [3] is given as -0.09038.

In the case of `Cl.O=c1cc(N2CCOCC2)oc2c(-c3ccccc3)cccc12` [LY-294,002 hydrochloride], the “Raw Signal” value under setting [4] is reported as 50825. Besides, the Z-score under setting [5] is -0.5996.

For the compound `NNCc1cccc(O)c1` [3-Hydroxybenzylhydrazine dihydrochloride], the “Raw Signal” value under setting [1] was 53590. Under setting [2], the Z-score was -0.3203.

Turning to `CSc1ccc(C(=O)c2[nH]c(=O)[nH]c2C)cc1` [Enoximone], the “Raw Signal” value under setting [4] was found to be 64614. Also, the Z-score (LOPAC single-point screen, Z-score from plate average and StDev) amounted to 1.919.

For the compound `OC[C@H]1O[C@@H](n2cnc3c(Nc4ccccc4)ncnc32)[C@H](O)[C@@H]1O` [N6-Phenyladenosine], the “Raw Signal” value under setting [1] is 55025. For the same compound, the Z-score under setting [2] was -0.194.

With `CC(N)c1cccc(Cl)c1Cl.Cl` (racemic), the “Raw Signal” value under setting [1] is recorded as 54173. Besides, the Z-score under setting [2] is listed as -0.2019.

As to `NCCCCN` [Putrescine dihydrochloride], under setting [1], the “Raw Signal” value is reported as 56490. Under setting [3], this compound yielded a Z-score of 0.09057.

As for `CN1CCc2cc(Cl)c(O)cc2[C@@H](c2ccccc2)C1.Cl` [R(+)-SCH-23390 hydrochloride], under setting [1], the “Raw Signal” value was 55189. In addition, the Z-score under setting [3] is recorded as 0.004461.

`Cc1ccc(OCC(O)C(C)NC(C)C)c2c1CCC2.Cl` (centres unmarked) [ICI 118,551 hydrochloride]: the “Raw Signal” value under setting [6] came out at 57174. Also, the Z-score under setting [7] was 0.4672.

For the compound `COc1ccc(CCN)cc1O.Cl`, under setting [1], the “Raw Signal” value turned out to be 55159. The Z-score under setting [3] is on record as -0.001632.

As to `N#CCCN.N#CCCN.O=C(O)/C=C/C(=O)O` [3-Aminopropionitrile fumarate], under setting [4], the “Raw Signal” value amounted to 53618. The Z-score under setting [5] is -0.7565.

With `CCn1cc(C(=O)O)c(=O)c2cc3c(cc21)OCO3` [Oxolinic acid], the “Raw Signal” value under setting [6] stood at 60270. Besides, the Z-score under setting [7] amounted to 0.9874.

On to `Cl.NC1(C(=O)O)CC1`, for which, under setting [6], the “Raw Signal” value turned out to be 65481. Further, the Z-score under setting [7] stood at 1.333.

With `CCOC(=O)c1ncn2c1[C@@H]1CCCN1C(=O)c1cc(OC)ccc1-2` [L-655,708], the “Raw Signal” value under setting [1] worked out at 54093. In addition, the Z-score under setting [3] is recorded as -0.05049.

In the case of `CC(=O)O[C@]1(C(C)=O)CC[C@H]2[C@@H]3C=C(Cl)C4=CC(=O)[C@@H]5C[C@@H]5[C@]4(C)[C@H]3CC[C@@]21C` [Cyproterone acetate], under setting [6], the “Raw Signal” value worked out at 63165. Further, under setting [7], the Z-score is on record as 0.925.
